Source: patent publication US20130197030A1, “Substituted 1,3-Dioxanes and There Uses” (Evolva Sa, priority 2007, published 2013)

What was measured:
[1] = target: T1, Thromboxane receptor (TP) (Homo sapiens, UniProt P21731); experiment: TP receptor radioligand binding; conditions: Human recombinant HEK-293 cells, 5 nM [3H] SQ-29548
T1 construct: expressed in transfected cells; host or cells: HEK-293 cells
T1 sequence (P21731 1-343): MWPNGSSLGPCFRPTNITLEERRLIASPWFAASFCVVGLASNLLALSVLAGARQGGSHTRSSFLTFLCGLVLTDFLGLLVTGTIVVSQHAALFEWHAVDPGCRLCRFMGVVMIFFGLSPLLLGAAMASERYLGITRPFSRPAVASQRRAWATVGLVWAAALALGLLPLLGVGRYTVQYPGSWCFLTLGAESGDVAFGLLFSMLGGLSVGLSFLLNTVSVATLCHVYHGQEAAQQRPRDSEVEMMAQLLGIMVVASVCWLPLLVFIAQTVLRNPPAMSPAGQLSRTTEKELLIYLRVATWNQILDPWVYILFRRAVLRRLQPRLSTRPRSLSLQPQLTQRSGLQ
Experimental: The compounds were tested on radioligand binding assays for thromboxane receptor binding essentially as described by Hedberg et al. (1988) J. Pharmacol. Exp. Ther. 245:786-792 and Saussy et al. (1986) J. Biol. Chem. 261: 3025-3029 according to the following:
TP Receptor Radioligand Binding Studies:
Human recombinant HEK-293 cells,
Incubation Time, Temp: 30 minutes at 25° C.
Incubation Buffer: 50 mM Tris-HCl, pH 7.4, 154 mM NaCl
Non-Specific Ligand: 1 μM SQ-29548
The data were transformed to semi-log and then analysed using non-linear regression to a four-parameter dose-response curve Y=Bottom+(Top−Bottom)/(1+10̂((LogEC50−X)*HillSlope)) using the log(agonist) vs. response—Variable slope function of GraphPad Prism software (http://graphpad.com/help/prism5/prism5help.html?usingnonlinear_regression_step_by_s.htm).

[2] = system: U-46619-induced platelet aggregation; experiment: TP receptor platelet aggregation, rabbit; assay type: cell-based, New Zealand Rabbit
Experimental: Thrombosis Research 33:277-288.
TP Receptor Platelet Aggregation—Rabbit:
New Zealand Rabbit (2.75±0.25 kg) platelet rich plasma
Assay: Inhibition of 1.5 μM U-46619-induced platelet aggregation Incubation Time, Temp: 5 minutes at 37° C. Incubation Buffer Trisodium Citrate (0.13 M)-treated platelet rich plasma
Time of Assessment: 5 minutes
Quantification Method Optical Density Change

[3] = system: arterial thrombosis in a mouse model; experiment: Arterial thrombosis in a mouse model (FeCl3, femoral artery); assay type: in vivo; conditions: mice; dose not given
Experimental: The solutions are diluted 3.3-fold in saline and 100 μl/25 g is injected. Thus, the above-mentioned doses of 100 and 300 mg/kg of compound correspond to final doses of 30 and 100 mg/kg.
During the experiments, a soluble salt of the drug is provided (e.g., potassium salt of compound C), diluted in saline. Of this formulation, 100 μl/25 g is injected i.v. in the tail vein (dose of 100 mg/kg).
Solutions are injected (100 μl/25 g body weight) i.v. in the tail vein over 2 min to obtain doses of each compound of 30 mg/kg and 100 mg/kg. Aspirin is given the same way at a dose of 200 mg/kg. Clopidogrel is administered by oral gavage at a dose of 20 mg/kg at 6-7 hours prior to the experiment. The animals assigned to each group are matched for body weight. Mice are typically 8-10 weeks old males and are in a 100% Swiss genetic background.
The flow in each image is expressed as a percentage of that at the contralateral side, and data are averaged for all 120 images to determine total flow. The same analysis is performed for 10 min intervals (which gives essentially the same information as the area under the curve). […] Flow before treatment is recorded as 100%, and that in occluded arteries as 0%. At the end of the experiment, blood is collected on 0.01M citrate buffer by heart puncture for determination of blood cell counts. Plasma is prepared by centrifugation and stored at −20° C. for determination of drug levels.
Statistical analysis for differences between two groups is performed by non-parametric Student t-test. Occlusion times >30 min were considered equal to 30 min for statistical analysis. Significance is set at p<0.05.

3T3-L1 adipocytes = experiment: Insulin-stimulated glucose uptake assay; assay type: cell-based; conditions: compared with Compound A (racemate)
Experimental: Briefly, glucose uptake is measured in 3T3-L1 adipocytes cultured in 96-well plates. On day 6 of differentiation (according to the MDI-protocol, see above) cells are treated with either vehicle, positive control (Avandia) or test compound. 48 hours later the ability of adipocytes to take up glucose in response to insulin is determined. Cells are washed with serum-free DMEM+antibiotics and incubated in the same medium at 37° C. for 2 hours. Cells are then washed and subsequently incubated in Krebs-Ringer-Hepes (KRP) buffer for 30 min at 37° C. Hereafter, insulin is added to the cells to a final concentration of 10 nM and cells are then incubated at 37° C. for 15 min. Glucose uptake is initiated by the addition of KRP buffer supplemented with 10 mM [^14C] 2-deoxy-D-glucose. After further incubation for 15 min at 37° C., glucose uptake is terminated by addition of a large surplus of cold glucose and three rapid washes of ice-cold PBS. Cells are then lysed and ^14C-radioactivity determined by scintillation counting.

IC50 [1]: 0.0152 µM | Ki [1]: 0.0099 µM | inhibition at 10 µM ([1]; at 10 μM): 97%
Structure (SMILES): O=C(O)CC/C=C\CC1COC(c2coc3ccc(Cl)cc3c2=O)OC1c1ccccc1O (racemic) [Compound 3, (Z)-6-(2-(6-Chloro-4-oxo-4H-chromen-3-yl)-4-(2-hydroxyphenyl)-1,3-dioxan-5-yl)hex-4-enoic acid]
Inhibition of platelet aggregation (in words) [2]: potent inhibitors of platelet aggregation | inhibition at 30 µM ([2]; Oryctolagus cuniculus, at 30 μM, 1.5 μM U-46619, platelet rich plasma): 100% | Occlusion time [3]: prolongs the occlusion time | Total blood flow [3]: improves total blood flow | Effect in glucose uptake assays (in words) (3T3-L1 adipocytes): effect similar if not better to Compound A (racemate)
